Measured values: US11319348B2, “Synthetic beta-amyloid peptides capable of forming stable antigenic oligomers” (The Regents of the University of California, priority 2016, dated 2022)
Non-standard residues stand in square brackets, D forms with d. No end group written: not given here. NMeF = CN[C@@H](Cc1ccccc1)C(=O)O; Orn = NCCC[C@H](N)C(=O)O

Columns and labels:
[1] = tested on: A11 antibody; assay: dot blot with A11 antibody; type: binding
Text: The LDH release and caspase-3 activation studies indicate that trimers 3 and 4 behave similarly to oligomers of full-length Aβ, providing evidence for the biological significance of the triangular assembly. To further evaluate how the biological properties of trimers 3 and 4 compare to those of full-length Aβ, the reactivity of trimers 3 and 4 with the conformation specific antibody A11 was examined. […] The structures of the A oligomers recognized by the A11 antibody are not known. We investigated whether the A11 antibody recognizes trimers 3 and 4 by dot blot analysis.
A 10 mg/mL stock solution of peptides 1 or 2, or trimers 3 or 4 was prepared gravimetrically by dissolving 1 mg of each compound in 100 μL of deionized water that was either filtered through a 0.2 μm syringe filter. An aliquot of each stock solution was diluted with deionized water to make 3 mg/mL solutions. The 3 mg/mL solutions were then serially diluted with deionized water to create 1.5 mg/mL, 0.75 mg/mL, and 0.37 mg/mL solutions. A 5 μL aliquot of each solution from the serial dilution was combined with 5 μL of a 2× solution of phosphate buffered saline (PBS) at pH 7.4 to generate 1.5 mg/mL, 0.75 mg/mL, and 0.37 mg/mL, and 0.18 mg/mL buffered solutions of peptides 1 or 2 or trimers 3 or 4. A 1-μL aliquot of each buffered solution was spotted onto a nitrocellulose membrane and allowed to aft dry (˜5 min). Non-reactive sites were blocked with 10% (w/v) non-fat powdered milk in low-Tween Tris-buffered saline (TBS-IT: 20 mM Tris, 137 mM NaCl; 0.01% Tween 20, pH 7.6) for 1 h at room temperature with rocking. The membrane was then incubated while rocking overnight at 4° C. in primary A11 antibody (200 μg/mL) in 5% non-fat powdered milk in TBS-IT. The next day, the membrane was washed with TBS-IT for 5 min (3×). The membrane was then incubated while rocking with horseradish peroxidase conjugated goat anti-rabbit antibody (100 μg/mL) (Jackson ImmunoResearch catalog #111-035-003) in 5% non-fat powdered milk in TBS-IT for 1 h at room temperature. The membrane was then washed with TBS-IT for 5 min (3×). A 10 mL portion of chemiluminescence substrate (Thermo Scientific SuperSignal West Femto Maximum Sensitivity Substrate, product #34095) was prepared according to manufacturer's protocol and poured onto the membrane. The membrane was allowed to incubate in the chemiluminescence substrate for ˜10 min before imaging. The blot was imaged using a standard digital SLR camera.

[2] = tested on: SH-SY5Y cells; assay: LDH release assay; type: cell-based, human; conditions: for LDH release / toxicity toward SH-SY5Y cells, in words / LDH release / lowest concentration with increased LDH release / toxicity (concentrations as low as): SH-SY5Y cells; for LDH release: 72 h
Experimental: Aβ is known to be toxic toward neurons and neuronally derived cells (I. Benilova, et al., 2012, cited supra). To corroborate the toxicity of Aβ, we prepared oligomers of Aβ42 and studied their toxicity toward a human neuroblastoma cell line, SH-SY5Y. Aβ oligomers were prepared according to the procedure developed by Teplow and coworkers using recombinantly expressed Aβ42 pretreated with NH4OH (purchased from rPeptide) (D. B. Teplow, Methods Enzymol. 2006 413, 20-33; and Y. Fezoui, et al., Amyloid. 2000 7, 166-178; the disclosures of which are incorporated herein by reference). Under the conditions of the oligomer preparation, Aβ42 forms predominantly monomer, trimer, and tetramer as assessed by SDS-PAGE (FIG. 28A). It was also observed that bands migrated with molecular weights consistent with a pentamer and hexamer. SH-SY5Y cells were treated with varying concentrations of Aβ42, and toxicity was evaluated using a lactate dehydrogenase (LDH) release assay. Aβ42 increased LDH release in a dose-dependent manner at concentrations as low as 2.5 μM, corroborating the toxicity of Aβ42 (FIG. 28B).
It was hypothesized that trimers 3 and 4 may elicit toxicity similarly to Aβ42. The toxicities of trimers 3 and 4 towards SH-SY5Y cells were evaluated using an LDH assay, using deionized water (vehicle) and peptides 1 and 2 as controls. Trimer 4 increased LDH release in a dose-dependent manner at concentrations as low as 1.5 μM, indicating toxicity toward SH-SY5Y cells (FIG. 29A). LDH release was observed as early as 48 h after addition to the cells and reached a maximum after 72 h.
Many oligomers formed by full-length Aβ are toxic toward cells (I. Benilove, E. Karan, and B. De Strooper, Nat. Neurosci. 2012 15, 349-357; and M. E. Larson and S. E. Lesne J. Neurochem. 2012 120, 125-139; the disclosures of which are incorporated herein by reference). To test whether the oligomers formed by peptide 8 are also toxic, the toxicity of peptide 8 toward neuronally derived SH-SY5Y cells were evaluated using a lactate dehydrogenase (LDH) release assay. Peptide 8 and 10 were compared to investigate how the hexamer-forming Aβ16-36-derived peptide compares to a non-oligomerizing homologue. The toxicity of peptides 2 and 11 were also evaluated to better understand the relationship between oligomerization and toxicity.
The toxicities of peptides 1 and […], and trimers 3 and 4 toward SH-SY5Y cells were assessed by LDH release and caspase-3 activation assays. Cells were incubated in the presence or absence of equivalent concentrations of peptides 1 or 3, or trimers 3 and 4 for 72 h in 96-well plates. The LDH release assay was performed using the Pierce LDH Cytotoxicity Assay Kit from Thermo Scientific. The caspase-3 assay was performed using the Roche APO-One Homogeneous Caspase-3/7 Assay. Experiments were performed in replicates of five and an additional 10 wells were used for controls. Cells were cultured in the inner 60 wells (rows B-G, columns 2-11) of the 96-well plate. DMEM:F12 media (100 μL) was added to the outer wells (rows A and H, columns 1 and 12), in order to ensure the greatest reproducibility of data generated in the inner wells.
A 10 mg/mL stock solution of peptides 1 or […], or trimers 3 and 4 was prepared gravimetrically by dissolving 1 mg of each compound in 100 μL of deionized water that was either filtered through a 0.2 μm syringe filter or autoclaved. The stock solution was used to create 180 μM working solutions of peptides 1 or 3, or 60 μM working solutions of trimers 3 and 4 (these solutions contain equivalent concentrations of peptide). The 180 μM working solutions of peptides 1 and 2 were serially diluted with deionized water to create 90 μM working solutions of peptides 1 and 2. The 60 μM working solutions of trimers 3 and 4 were serially diluted with deionized water to create 30 μM, 15 μM, and 7.5 μM working solutions of trimers 3 and 4.
SH-SY5Y cells were plated in a 96-well plate at 30,000 cells per well. […]

[3] = after addition to SH-SY5Y cells

Row | Substance | A11 reactivity [1] | reaction with A11 antibody [1] | LDH release / toxicity toward SH-SY5Y cells, in words [2] | LDH release [2] | lowest concentration with increased LDH release / toxicity (concentrations as low as) [2] | time at which LDH release reached a maximum [2, 3] | time at which LDH release was first observed (as early as) [2, 3]
1 | peptide 1: macrocyclic β-sheet peptide: Aβ17-23 and Aβ30-36 strands linked by two δOrn turns, Orn35, N-methyl on G33 (Seq. ID 18-19) | no | do not | little or no LDH release | no |  |  | 
2 | peptide 2: macrocyclic β-sheet peptide: Aβ17-23 and Aβ30-36 strands linked by two δOrn turns, Orn35, N-methyl on F20 (Seq. ID 20-21) | no | do not | little or no LDH release | no | 100 µM |  | 
3 | trimer 3: symmetric tris-disulfide crosslinked trimer generated from peptide 3 (chain 1 [Orn]CVFFCED; chain 2 [Orn]AIIGL[Orn]V; not fully specified (some residues); also: symmetric tris-disulfide crosslinked trimer, macrocyclic by macrolactamization, linkage of strands not given here) | yes | react with the A11 antibody | far less LDH release than trimer 4 | some |  |  | 
4 | trimer 4: symmetric tris-disulfide crosslinked trimer generated from peptide 4 (chain 1 [Orn]CVF[NMeF]CED; chain 2 [Orn]AIIGL[Orn]V; also: symmetric tris-disulfide crosslinked trimer, macrocyclic by macrolactamization, linkage of strands not given here) | yes | react with the A11 antibody |  | yes | 1.5 µM | 72 h | 48 h
